Reference: patent publication US11034702B2, “Thienoisoquinolines and their derivatives for the treatment of cancer” (VALORBEC, SOCIÉTÉ EN COMMANDITE, priority 2016, dated 2021)

Experiments:
[1] = tested on: MCF-7 cells; experiment: Mitotic spindle phenotype in MCF-7 cells; type: cell-based, human; conditions: MCF-7, 300 nM, 6-8 hours
Method: FIG. 2A) is a line graph showing the percentage of HCT116 (p53−/−) cells, A549 cells, HeLa cells and H1299 cells in mitosis after treatment with various concentrations of C75 for one population doubling time. All of the cell lines show an increase in the proportion of mitotic cells after treatment with 200 nM C75. The bars indicate standard deviation. […] While the mitotic spindles were not dramatically altered by C75 in HFF1 cells, they were monopolar (as shown) or fragmented in the other cell types. […] The mitotic spindles were more strongly fragmented after C75 treatment in these cells vs. the cells in FIG. 2B). […] While mitotic spindles recovered bipolarity after removing nocodazole, they remained multipolar after removing C75. FIG. 2F) is a series of time-lapse images of a live HeLa cell expressing GFP:tubulin after treatment with C75 as shown in 2D) and 2E). The scale bar for all cells is 10 μm. FIG. 2G) is a schematic showing the putative target for C75. […]
(§1) C75 was also tested for efficacy in different cancer cell lines. […] To further assess the role of C75 in affecting centrosomes, HeLa cells were treated with C75 for a short period of time (5 minutes), then C75 was removed and the cells were analyzed for spindle phenotypes (schematic in FIG. 2D). […]

[2] = tested on: HCT116 (colorectal cancer) cells; experiment: IC50 (cell death) in HCT116 cells; type: cell-based; conditions: Homo sapiens, HCT-116; stated jointly for MCF7, BT549, A549, HCT116 and HeLa; HCT116 not in Table 3; read-out: IC50 values (death in multiple cancer cells)
Method: (§2) 19 variants with different structural modifications have been made. […] In particular, it is shown that C75 causes death in multiple cancer cells with IC50 values in the 100 nM range, including breast cancers (MCF7, BT549), lung cancer (A549), colorectal cancer (HCT116) in addition to HeLa cells (cervical cancer).

[3] = tested on: MCF-7 (mammary gland carcinoma) cells; experiment: IC50 (viability) in MCF-7 cells; type: cell-based; conditions: Homo sapiens, MCF7
Method: as §2

[4] = tested on: HCT116 cells; experiment: Mitotic spindle phenotype and centrosome fragment distance in HCT116 cells; type: cell-based
Method: FIG. 2A) is a line graph showing the percentage of HCT116 (p53−/−) cells, A549 cells, HeLa cells and H1299 cells in mitosis after treatment with various concentrations of C75 for one population doubling time. All of the cell lines show an increase in the proportion of mitotic cells after treatment with 200 nM C75. The bars indicate standard deviation. […] While the mitotic spindles were not dramatically altered by C75 in HFF1 cells, they were monopolar (as shown) or fragmented in the other cell types. […] The mitotic spindles were more strongly fragmented after C75 treatment in these cells vs. the cells in FIG. 2B). […] While mitotic spindles recovered bipolarity after removing nocodazole, they remained multipolar after removing C75. FIG. 2F) is a series of time-lapse images of a live HeLa cell expressing GFP:tubulin after treatment with C75 as shown in 2D) and 2E). The scale bar for all cells is 10 μm. FIG. 2G) is a schematic showing the putative target for C75. Healthy cells have two centrosomes that separate and form a bipolar spindle, while cancer cells have aberrant centrosomes that cluster to form ‘pseudo’ bipolar spindles, and C75 may target this process and their integrity.
FIG. 3A) is a line graph showing the percentage of mitotic HeLa or HFF1 cells treated with a range of paclitaxel (Taxol™; tubulin-targeting drug) concentrations+/−C75 as indicated. The bars indicate standard deviation. FIG. 3B) is a series of bar graphs showing the proportion of HCT116 cells that have monopolar spindles, bipolar spindles with aligned chromosomes, bipolar spindles with misaligned chromosomes and multipolar/fragmented spindles after treatments as shown. Treatments include DMSO (control), varying concentrations of paclitaxel and/or varying concentrations of C75 after 7 hours. While treatment of HCT116 cells with 2.5 nM paclitaxel caused a threshold of mitotic spindle phenotypes, adding increasing concentrations of C75 in combination with 2.5 nM paclitaxel caused the phenotypes to progressively worsen. FIG. 3C) is bar graph showing the average distance between centrosome fragments in HCT116 cells after treatments as shown. While centrosome fragments moved closer together with increased concentrations of paclitaxel, they moved further apart with increased concentrations of C75. […] FIG. 3E) is a line graph showing the percentage of mitotic HeLa or HFF1 cells treated with a range of nocodazole concentrations+/−C75 as indicated. The bars indicate standard deviation. […]
as §1

SMILES: COc1ccc(S(=O)(=O)N2Cc3ccccc3-c3sc(Br)cc32)cc1 [Compound C75]
- mitotic spindle phenotype [1]: mix of monopolar, bipolar and multipolar spindles
- IC50 [2]: ~100 nM
- IC50 [3]: 101 nM
- mitotic spindle phenotype ([4]; HCT116 (p53-/-), 300 nM, 6-8 hours): most of the spindles were severely fragmented
- effect of C75 on phenotypes caused by paclitaxel ([4]; HCT116, 2.5 nM paclitaxel + increasing C75, 7 hours): enhances the phenotypes
- change of centrosome fragment distance when paclitaxel was combined with C75 ([4]; HCT116, paclitaxel + C75): significant increase in fragment distance
